Tests used:
UAE-1 = conditions: cited from earlier work
gp140 = conditions: subcutaneous booster in monkeys first immunized with Hub-TGDK-UPA-CpGODN-gp140-Fetuin, after anti-gp140 titer had decreased (about one year and a half)
From the text: The resulting modified gene of SIVmac239 Env was transferred into simian Vero cells and a monomer and a trimer of SIVmac239 Env gp140 were constructed.

NCCNC(=O)[C@H](CCCCNC(=O)[C@H](CCCCNC(=O)c1cc(O)c(O)c(O)c1)NC(=O)c1cc(O)c(O)c(O)c1)NC(=O)[C@H](CCCCNC(=O)c1cc(O)c(O)c(O)c1)NC(=O)c1cc(O)c(O)c(O)c1 [TGDK, N^2,N^6-bis[N^2,N^6-bis(3,4,5-trihydroxybenzoyl)-L-lysyl]-N-(2-aminoethyl)-L-lysine amide]
mode of inhibition of UAE-1 (UAE-1): competitive inhibitor

Fetuin
production of anti-gp140 antibodies after booster (gp140): production of anti-gp140 antibodies was confirmed

Reference: patent US20150024001A1, “MOLECULAR MIMIC MUCOSAL AIDS VACCINE” (priority 2011, published 2015)
